Measured values taken from patent US7692030B2, “Conjugates of artemisinin-related endoperoxides and hydrazone derivatives for the treatment of cancer” (University of Washington, priority 2006, dated 2010).
Entries after “also recorded” stand apart in the source; their conditions may differ.

What was measured:
Assay type in all cases: cell-based
RXF 393 = assay: NCI DTP human tumor cell line screen (SRB); settings: Renal Cancer, 10 μM, 48 h
Summary of the method: (§1)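 Cells plated and preincubated 24 h at 37 °C, 5% CO2, then exposed to compound at 10 μM final for 48 h. Adherent cells fixed with cold TCA, stained with SRB, absorbance read at 515 nm. Percent growth derived from time-zero (Tz), control (C) and treated (Ti) readings.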

DU-145 = assay: NCI DTP human tumor cell line screen (SRB); settings: Prostate Cancer, 10 μM, 48 h
Summary of the method: as §1

IGROV1 = assay: NCI DTP human tumor cell line screen (SRB); settings: Ovarian Cancer, 10 μM, 48 h
Summary of the method: as §1

A549/ATCC = assay: NCI DTP human tumor cell line screen (SRB); settings: Non-Small Cell Lung Cancer, 10 μM, 48 h
Summary of the method: as §1

[1] = system: DAOY medulloblastoma cells; assay: DAOY medulloblastoma cells, MTT assay and light microscopy
Experimental: The compound ART-Phe-Sal was tested on DAOY medulloblastoma cells using the MTT assay. DAOY Medulloblastoma cells (5,000 cells/200 μL) was seeded on a 96 well plate and incubated for 24 h at 37° C. Cell culture medium was removed after 24 h and 150 μL of medium with treatment was added. Each experimental treatment had holo-Tf (20 μg/well). Treatment assay was viewed under light microscope after 24 h.
Treatment medium was removed after 48 h, and 100 μL of cell medium was added. MTT Reagent (10 μL, 12 mM) was added to each well. This solution was incubated at 37° C. for 4 h. Isopropanol (100 μL) was added to each well to lyse the cells, which were then incubated at 4° C. for 30 m. After incubation each well was plunged (3×200 μL) to ensure the cells were lysed. The incubated medium with MTT reagent was then centrifuged at 13,000 RPM in an eppendorph centrifuge for 3 minutes at room temperature. 100 μL of supernatant was read in a plate reader at λ=570 nm. FIG. 13 compares the effect of dihydroartemisinin (DHA) and ART-Phe-Sal on DAOY medulloblastoma cell line. The concentration of holo-Tf was 1.7 μM.

[2] = system: Molt-4 human leukemia cells; assay: Cell count of Molt-4 human leukemia cells over time; settings: FIG. 11; [ART-Phe-Sal]=10 mM, [DHA]=10 μM, [ART-Tf]=12 μM; cells counted at different times
Experimental: Molt-4-lymphoblastoid cells were purchased from the American Type Culture Collection (Rockville, Md.). They are acute lympoblastic leukemia cells from human peripheral blood. Cultures were maintained in RPMI-1640 (Gibco, Long Island, N.Y.) supplemented with 10% fetal bovine serum (Hyclone, New Haven, Conn.). Cells were cultured at 37° C. in 5% CO2/95% air and 100% humidity, and were split 1:2 at a concentration of approximately 1×10^6/mL. Approximate cell numbers before experiment were between 150×10^3 to 300×10^3 per mL.
FIG. 11 compares the effects of ART-Phe-Sal, DHA, and artemisinin-tagged holotransferrin (ART-Tf) on Molt-4 human leukemia cell.

SMILES | Growth Percent (RXF 393) [%] | Growth Percent (DU-145) [%] | Growth Percent (IGROV1) [%] | Growth Percent (A549/ATCC) [%] | activity against DAOY medulloblastoma cells ([1]; FIG. 13, MTT assay, 48 h treatment, holo-Tf 1.7 μM) | cell shrinkage under light microscope ([1]; after 24 h treatment, each treatment had holo-Tf (20 μg/well)) | effect on Molt-4 human leukemia cells (cell count, words) [2]
Cc1ncc(CO)c(C=NNC(=O)c2ccc(COC3OC4OC5(C)CCC6C(C)CCC(C3C)C46OO5)cc2)c1O (stereo not shown) [ART-Phe-Pyridoxal, N′-(5-hydroxy-3-hydroxymethyl-2-methyl-4-pyridylidene)-4-(dihydroxyartemisinin-methyl)-phenyl carbohydrazide] | 35.07 | −9.65 | 1.58 | 26.36 | – | – | –
CC1CCC2C(C)C(OCc3ccc(C(=O)NN=Cc4ccccc4O)cc3)OC3OC4(C)CCC1C32OO4 (stereo not shown) [ART-Phe-Sal, N′-(2-hydroxybenzylidene)-4-(dihydroxyartemisinin-methyl)-phenyl carbohydrazide] | – | – | – | – | active against DAOY medulloblastoma cells | Moderate cell shrinkage | can effectively kill human leukemia cells; also recorded: more potent than either dihydroartemisinin (DHA) or artemisinin-tagged holotransferrin (ART-Tf)
